Publication PMC4032192 (Journal of Medicinal Chemistry, 2014)

Target: rat nNOS (Rattus norvegicus, UniProt P29476)
Assay: oxyhemoglobin NO capture assay, rat nNOS
Assay type: biochemical

rat nNOS, sequence (P29476 whole entry): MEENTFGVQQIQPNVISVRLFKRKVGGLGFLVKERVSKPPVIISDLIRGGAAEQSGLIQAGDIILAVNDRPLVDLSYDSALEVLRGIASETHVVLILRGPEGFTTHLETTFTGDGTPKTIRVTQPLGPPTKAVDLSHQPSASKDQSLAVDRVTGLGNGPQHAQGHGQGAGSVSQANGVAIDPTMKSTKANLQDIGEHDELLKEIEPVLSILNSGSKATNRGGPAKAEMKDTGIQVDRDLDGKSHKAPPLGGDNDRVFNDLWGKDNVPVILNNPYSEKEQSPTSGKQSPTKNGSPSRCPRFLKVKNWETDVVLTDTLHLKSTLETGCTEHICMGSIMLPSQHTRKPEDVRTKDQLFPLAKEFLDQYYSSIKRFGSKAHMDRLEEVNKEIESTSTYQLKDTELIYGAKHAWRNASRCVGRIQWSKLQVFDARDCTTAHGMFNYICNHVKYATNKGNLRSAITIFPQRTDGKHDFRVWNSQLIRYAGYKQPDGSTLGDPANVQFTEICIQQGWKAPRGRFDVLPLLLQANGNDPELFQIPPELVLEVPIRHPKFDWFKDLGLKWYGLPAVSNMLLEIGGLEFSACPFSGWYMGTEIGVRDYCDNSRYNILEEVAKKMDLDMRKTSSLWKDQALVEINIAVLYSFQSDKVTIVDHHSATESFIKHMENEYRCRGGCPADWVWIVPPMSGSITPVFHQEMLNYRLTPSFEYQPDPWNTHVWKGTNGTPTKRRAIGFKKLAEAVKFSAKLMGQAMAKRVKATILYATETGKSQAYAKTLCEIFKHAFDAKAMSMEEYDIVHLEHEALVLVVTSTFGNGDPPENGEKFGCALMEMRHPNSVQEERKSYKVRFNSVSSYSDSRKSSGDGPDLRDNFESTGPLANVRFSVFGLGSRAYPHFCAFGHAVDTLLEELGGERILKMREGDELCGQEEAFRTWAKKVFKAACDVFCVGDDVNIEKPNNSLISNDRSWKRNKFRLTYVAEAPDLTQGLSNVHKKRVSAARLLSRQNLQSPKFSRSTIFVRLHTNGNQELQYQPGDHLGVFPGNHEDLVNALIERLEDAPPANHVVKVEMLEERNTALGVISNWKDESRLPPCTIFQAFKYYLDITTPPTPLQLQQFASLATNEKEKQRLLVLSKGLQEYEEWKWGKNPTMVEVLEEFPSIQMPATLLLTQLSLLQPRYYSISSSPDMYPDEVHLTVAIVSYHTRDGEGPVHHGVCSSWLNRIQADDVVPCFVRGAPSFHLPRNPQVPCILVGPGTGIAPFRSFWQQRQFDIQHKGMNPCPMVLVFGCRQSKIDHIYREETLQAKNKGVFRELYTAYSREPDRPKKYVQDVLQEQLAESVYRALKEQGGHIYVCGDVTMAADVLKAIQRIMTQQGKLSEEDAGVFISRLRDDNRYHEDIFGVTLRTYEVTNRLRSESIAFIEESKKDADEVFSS

Structure (SMILES) | Ki
Cc1cc(N)nc(CCc2cccc(C(O)Cc3cc(C)cc(N)n3)c2)c1 (centres unmarked) [Compound 4] | ~100 nM
Cc1cc(N)nc(CCc2cccc([C@H](N)Cc3cc(C)cc(N)n3)c2)c1 [Compound 3R, (R)-6-(2-Amino-2-(3-(2-(6-amino-4-methylpyridin-2-yl)ethyl)phenyl)ethyl)-4-methylpyridin-2-amine] | ~100 nM
